In patent EP1799816B1, “NOVEL LACCASE ENZYME AND USE THEREOF” (AB Enzymes Oy, priority 2004, dated 2006):
Values joined by “and” are separate entries in the source; they are usually repeats but may differ in a detail not shown here. Identical values can stand only once. Like-named read-outs stand apart in the source and are kept apart here.

Legend:
[1] = test system: recombinant Thielavia arenaria TaLcc1 laccase (rTaLcc1); type: biochemical
Method: Table 2. Inhibition of the Thielavia wild type laccase.
The inhibition effect of different compounds on the activity of the recombinant TaLcc1 laccase was determined as described in Example 2. Table 7. Inhibition of the recombinant Thielavia arenaria TaLcc1 laccase (rTaLcc1) activity by various compounds.

[2] = test system: Thielavia wild type laccase
[3] = Sodium hypochlorite bleaching of different types of denim, Wascator, colour of face side of denim; details: 25 ml/l 10 % NaOCl, 15 min, 40°C, pH 11.5 - 11.9
Method: Different types of demin were treated with a TaLcc1 laccase product from Trichoderma strain RF5597 and DeniLite II Base from Novozymes and the results obtained were compared to hypochlorite bleaching. All together 27 pieces of different kinds of denim (whole jeans), which had been previously washed with cellulase after desizing to different abrasion levels or had been only desized with ECOSTONE® A200 (60°C, 10 min), were collected for the test (Table 15). The jeans were made of Indigo dyed denim, except the English jeans contained Indigo dyed denim with sulphur bottom. Jeans were cut in such a way that pieces from the same pair of jeans could be used for all tests.
The sodium hypochlorite bleaching was performed with Electrolux's Wascator FOM 71 CLS washer extractor using denim obtained from the same jeans as in laccase treatments under conditions described in Table 17. Sodium hydroxide was added before adding 25 ml/l of 10 % sodium hypochlorite solution (Klorite Forte, Farmos Oy) to keep the pH above 10.5 during the treatment. After draining the bleach liquor, there was one 2 minutes rinsing step with the liquor ratio of 1:20 before dechlorinating with sodium thiosulphate. After dechlorinating the denim samples were rinsed 3 times for 2 minutes with the liquor ratio of 1:20. The fabrics were dried in a tumbler. Table 17. The process parameters used in the sodium hypochlorite bleaching and dechlorinating.
The bleaching effect was evaluated by measuring the colour as reflectance values as in Example 7. […] Different looks were obtained depending on the type of the denim and cellulase treatment used. "Sulphur-bottom type" denim was the most difficult to bleach. Table 18. Colour measurements of the face side of denim treated with TaLcc1 laccase preparation (RF5597). L* indicates lightness, -b* is the blue direction, +b* is the yellow direction.

[4] = substrate: COc1cc(C=NN=Cc2cc(OC)c(O)c(OC)c2)cc(OC)c1O; assay: Kinetic parameters (Km, kcat, kcat/Km) on laccase substrates; type: biochemical, Melanocarpus albomyces; details: other: substrate Syringaldazin, 25°C, buffer unclear, comparison enzyme
Method: (§1) On syringaldazin and DMP 40 mM MES buffer, pH 6 and 25 mM succinate bluffer, All activity assays were carried out at 25°C. Kinetic parameters were estimated by a nonlinear regression curve fit. The values were compared to those of Melanocarpus albomyces MaL, laccase.

[5] = substrate: COc1cccc(OC)c1O; assay: as above; type: biochemical, Melanocarpus albomyces; details: other: substrate DMP, 25°C, buffer unclear, comparison enzyme
Method: as §1

[6] = sample B1, Basic Jeans, Ecostone P1250
[7] = sample E1, English jeans (sulphur bottom), desized only
[8] = sample E2, English jeans (sulphur bottom), Ecostone NP2000
[9] = sample E3, English jeans (sulphur bottom), Rocksoft NCE-EA
[10] = sample E4, English jeans (sulphur bottom), Rocksoft NCE-2X
[11] = sample E5, English jeans (sulphur bottom), Ecostone L900
[12] = sample E6, English jeans (sulphur bottom), Ecostone L900
[13] = sample E7, English jeans (sulphur bottom), Ecostone L900
[14] = sample L1, Lee Cooper jeans, desized only
[15] = sample L2, Lee Cooper jeans, Ecostone L
[16] = sample L3, Lee Cooper jeans, Biotouch C29
[17] = sample L4, Lee Cooper jeans, Ecostone L
[18] = sample L5, Lee Cooper jeans, Indiage Max L
[19] = sample L6, Lee Cooper jeans, Indiage Super L
[20] = sample L7, Lee Cooper jeans, Ecostone CXP500 Exper.
[21] = sample L8, Lee Cooper jeans, Ecostone CXP experimental
[22] = sample L9, Lee Cooper jeans, Ecostone N400
[23] = sample T1, Tincan jeans, desized only
[24] = sample T2, Tincan jeans, Ecostone N400
[25] = sample T3, Tincan jeans, Ecostone L300
[26] = sample T4, Tincan jeans, Denimax 991S
[27] = sample W1, Warric jeans, desized only
[28] = sample W2, Warric jeans, Ecostone P4500
[29] = sample W3, Warric jeans, Indiage Max G
[30] = sample W4, Warric jeans, Ecostone NP2000
[31] = sample W5, Warric jeans, Ecostone L900
[32] = sample W6, Warric jeans, Denabraide MBL 65 E

O=C(O)CN(CCN(CC(=O)O)CC(=O)O)CC(=O)O [EDTA]
Inhibition (%) of laccase rTaLcc1 ([1]; inhibitor 10 mM, ABTS as substrate): 5% | Inhibition(%) wt TaLcc1 ([2]; inhibitor 10 mM, 2 mM ABTS, 25 mM succinate buffer pH 4.5): 0%

[Cl-].[Na+] [NaCl]
Inhibition (%) of laccase rTaLcc1 [1]: 0% | Inhibition(%) wt TaLcc1 ([2]; pH 4.5): 35% and 42%

OCl [sodium hypochlorite]
After laccase Treatment L* [3, 6]: 40.62 | After laccase Treatment b* [3, 6]: -17.37 | Increase of L* [3, 6]: 12.27 | After laccase Treatment L* [3, 7]: 21.91 | After laccase Treatment b* [3, 7]: -15.03 | Increase of L* [3, 7]: 5.15 | After laccase Treatment L* [3, 8]: 33.30 | After laccase Treatment b* [3, 8]: -16.43 | Increase of L* [3, 8]: 7.36 | After laccase Treatment L* [3, 9]: 34.13 | After laccase Treatment b* [3, 9]: -16.73 | Increase of L* [3, 9]: 9.40 | After laccase Treatment L* [3, 10]: 35.83 | After laccase Treatment b* [3, 10]: -16.86 | Increase of L* [3, 10]: 9.28 | After laccase Treatment L* [3, 11]: 33.85 | After laccase Treatment b* [3, 11]: -16.48 | Increase of L* [3, 11]: 9.28 | After laccase Treatment L* [3, 12]: 30.61 | After laccase Treatment b* [3, 12]: -16.65 | Increase of L* [3, 12]: 8.41 | After laccase Treatment L* [3, 13]: 32.36 | After laccase Treatment b* [3, 13]: -16.75 | Increase of L* [3, 13]: 9.62 | After laccase Treatment L* [3, 14]: 31.23 | After laccase Treatment b* [3, 14]: -20.83 | Increase of L* [3, 14]: 10.69 | After laccase Treatment L* [3, 15]: 44.11 | After laccase Treatment b* [3, 15]: -18.60 | Increase of L* [3, 15]: 12.97 | After laccase Treatment L* [3, 16]: 39.71 | After laccase Treatment b* [3, 16]: -19.67 | Increase of L* [3, 16]: 11.26 | After laccase Treatment L* [3, 17]: 40.63 | After laccase Treatment b* [3, 17]: -19.25 | Increase of L* [3, 17]: 11.48 | After laccase Treatment L* [3, 18]: 39.47 | After laccase Treatment b* [3, 18]: -19.48 | Increase of L* [3, 18]: 11.47 | After laccase Treatment L* [3, 19]: 41.50 | After laccase Treatment b* [3, 19]: -18.68 | Increase of L* [3, 19]: 12.42 | After laccase Treatment L* [3, 20]: 37.91 | After laccase Treatment b* [3, 20]: -19.85 | Increase of L* [3, 20]: 11.15 | After laccase Treatment L* [3, 21]: 40.74 | After laccase Treatment b* [3, 21]: -19.12 | Increase of L* [3, 21]: 11.98 | After laccase Treatment L* [3, 22]: 40.82 | After laccase Treatment b* [3, 22]: -18.82 | Increase of L* [3, 22]: 11.91 | After laccase Treatment L* [3, 23]: 33.97 | After laccase Treatment b* [3, 23]: -17.95 | Increase of L* [3, 23]: 8.95 | After laccase Treatment L* [3, 24]: 34.38 | After laccase Treatment b* [3, 24]: -18.22 | Increase of L* [3, 24]: 6.73 | After laccase Treatment L* [3, 25]: 40.33 | After laccase Treatment b* [3, 25]: -18.30 | Increase of L* [3, 25]: 11.24 | After laccase Treatment L* [3, 26]: 37.66 | After laccase Treatment b* [3, 26]: -18.58 | Increase of L* [3, 26]: 10.10 | After laccase Treatment L* [3, 27]: 27.75 | After laccase Treatment b* [3, 27]: -18.76 | Increase of L* [3, 27]: 10.17 | After laccase Treatment L* [3, 28]: 39.35 | After laccase Treatment b* [3, 28]: -17.39 | Increase of L* [3, 28]: 13.76 | After laccase Treatment L* [3, 29]: 41.11 | After laccase Treatment b* [3, 29]: -16.79 | Increase of L* [3, 29]: 12.99 | After laccase Treatment L* [3, 30]: 38.07 | After laccase Treatment b* [3, 30]: -17.33 | Increase of L* [3, 30]: 12.29 | After laccase Treatment L* [3, 31]: 37.12 | After laccase Treatment b* [3, 31]: -18.03 | Increase of L* [3, 31]: 13.40 | After laccase Treatment L* [3, 32]: 36.65 | After laccase Treatment b* [3, 32]: -17.95 | Increase of L* [3, 32]: 12.90

[N-]=[N+]=[N-].[Na+] [NaN3]
Inhibition (%) of laccase rTaLcc1 [1]: 95%

B1: Melanocarpus albomyces laccase MaL (Melanocarpus albomyces) (protein)
chain: EPTCNTPSNRACWSDGFDINTDYEVSTPDTGVTQSYVFNLTEVDNWMGPDGVVKEKVMLINGNIMGPNIVANWGDTVEVTVINNLVTNGTSIHWHGIHQKDTNLHDGANGVTECPIPPKGGQRTYRWRARQYGTSWYHSHFSAQYGNGVVGTIQINGPASLPYDIDLGVFPITDYYYRAADDLVHFTQNNAPPFSDNVLINGTAVNPNTGEGQYANVTLTPGKRHRLRILNTSTENHFQVSLVNHTMTVIAADMVPVNAMTVDSLFLAVGQRYDVVIDASRAPDNYWFNVTFGGQAACGGSLNPHPAAIFHYAGAPGGLPTDEGTPPVDHQCLDTLDVRPVVPRSVPVNSFVKRPDNTLPVALDLTGTPLFVWKVNGSDINVDWGKPIIDYILTGNTSYPVSDNIVQVDAVDQWTYWLIENDPEGPFSLPHPMHLHGHDFLVLGRSPDVPAASQQRFVFDPAVDLARLNGDNPPRRDTTMLPAGGWLLLAFRTDNPGAWLFHCHIAWHVSGGLSVDFLERPADLRQRISQEDEDDFNRVCDEWRAYWPTNPYPKIDSGL
Km [4]: 1.3 µM | kcat [4]: 78.5 s⁻¹ | kcat/Km [4]: 6e+07 M⁻¹ s⁻¹ | Km [5]: 5 µM | kcat [5]: 69.33 s⁻¹ | kcat/Km [5]: 1.35e+07 M⁻¹ s⁻¹
